The results in this text go back to ChEMBL document CHEMBL3244295, “A ureido group containing analogue of oxytocin comprising eight amino acid residues” (J Med Chem, 1978).

Each structure is given as a SMILES string. Residues, ends and D or L forms follow the SMILES beside them. Bounds are passed on as bounds.

The target in test [1] is T1, Oxytocin-like receptor (Gallus gallus, UniProt Q5D7U5).
T1 sequence (Q5D7U5 whole entry): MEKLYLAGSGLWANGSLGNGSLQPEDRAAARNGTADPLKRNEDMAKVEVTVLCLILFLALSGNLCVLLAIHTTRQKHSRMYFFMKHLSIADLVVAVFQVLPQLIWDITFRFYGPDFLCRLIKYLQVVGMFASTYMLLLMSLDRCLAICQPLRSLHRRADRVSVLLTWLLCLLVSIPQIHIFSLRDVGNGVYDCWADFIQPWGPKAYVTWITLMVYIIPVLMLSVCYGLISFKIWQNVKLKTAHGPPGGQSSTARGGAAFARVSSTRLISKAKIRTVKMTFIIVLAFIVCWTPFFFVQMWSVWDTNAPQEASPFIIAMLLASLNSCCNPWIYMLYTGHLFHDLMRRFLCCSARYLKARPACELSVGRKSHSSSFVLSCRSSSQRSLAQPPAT
Nature of the test: Antagonist activity at oxytocin receptor in conscious chicken assessed as inhibition of oxytocin-induced vaspdepressor response. Conditions: read-out: pA2 (converted).

A short description of test [2]: Uterotonic activity in virgin rat uterus. The class given is functional.
The nature of test [3]: Uterotonic activity in virgin rat uterus relative to oxytocin. It counts as functional.
Test [4] deals with Rattus norvegicus. The test is described as follows: Antidiuretic activity in anesthetized rat assessed per mg. It counts as functional, Urine.

With `CC[C@H](C)[C@@H]1NC(=O)[C@H](Cc2ccc(O)cc2)NC(=O)[C@@H](N)C(C)(C)SSC[C@@H](C(=O)N2CCC[C@H]2C(=O)N[C@@H](CC(C)C)C(=O)NCC(N)=O)NC(=O)[C@H](CC(N)=O)NC(=O)[C@H](CCC(N)=O)NC1=O`, in test [1], the Kb is 31.6 nM.
`[H][C@@]1([C@@H](C)CC)NC(=O)[C@H](Cc2ccc(O)cc2)NC(=O)NCCCC[C@@H](C(=O)N2CCC[C@H]2C(=O)N[C@@H](CC(C)C)C(=O)NCC(N)=O)NC(=O)[C@H](CC(N)=O)NC(=O)[C@H](CCC(N)=O)NC1=O` (HELM PEPTIDE1{Y.I.Q.N.K.P.L.G.[am]}|CHEM1{[O=C([*:1])[*:2]]}$PEPTIDE1,CHEM1,1:R1-1:R1|PEPTIDE1,CHEM1,5:R3-1:R2$$$V2.0): the Activity in test [2] was 3.9 U/mg; in test [3] it was 0.8%; in test [4] it was less than 0.05 U. The Kb in test [1] is 53.7 nM.
